Experimental data published in patent publication US20240254118A1, “PRMT5 INHIBITORS AND USES THEREOF” (Gilead Sciences, Inc., priority 2022, published 2024).

Legend:
[1] = tested on: HCT116 MTAP-deleted cells; assay: Cell viability assay (CellTiter-Glo, 7 days), HCT116 MTAP-deleted; details: Homo sapiens, HCT-116, 168 h
[2] = tested on: SDMA signal (PRMT5 inhibition) in HCT116 MTAP-deleted cells; assay: Symmetric di-methyl arginine image-based high content screen assay (SDMA assay), HCT116 MTAP-deleted; assay type: cell-based; details: SDMA assay; for EC50: Homo sapiens, HCT-116, 72 h, 3 days of treatment, cell line not given, taken as HCT116 MTAP-deleted, read-out: EC50 (SDMA assay); for EC50 selectivity (SDMA assay): taken as HCT116 WT versus MTAP-deleted
How it was run: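 HCT116 MTAP-deleted cells treated with compound until Day 3, then formalin-fixed, permeabilized and immunostained for SDMA, with DAPI nuclear counterstain. Imaged by high-content microscopy; SDMA read-out is mean Alexa 488 intensity per DAPI-defined cell, reflecting PRMT5 inhibition.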

| Structure (SMILES) | EC50 [2] | EC50 selectivity (SDMA assay) [2] | CC50 [1] |
| --- | --- | --- | --- |
| CC(=O)N(C)N(Cc1ccc2c(cnn2C)c1)C(=O)c1ccc2nc(N)c3cnn(C)c3c2c1 [Example 164, N′-acetyl-4-amino-N′,1-dimethyl-N-((1-methyl-1H-indazol-5-yl)methyl)-1H-pyrazolo[4,3-c]quinoline-8-carbohydrazide] | 1 to 5 nM | 163 | < 100 nM |
| Cn1ncc2c(N)nc3ccc(C(=O)N(Cc4nc5ccccc5s4)N4CCC(F)(F)C4=O)cc3c21 [Example 169, 4-amino-N-(1,3-benzothiazol-2-ylmethyl)-N-(3,3-difluoro-2-oxo-pyrrolidin-1-yl)-1-methyl-pyrazolo[4,3-c]quinoline-8-carboxamide] | 1 to 5 nM | 14 | < 100 nM |
| Cn1ncc2c(N)nc3ccc(C(=O)N(Cc4ccc(C(F)(F)F)cn4)N4CC5(CC5)CC4=O)cc3c21 [Example 170, 4-amino-1-methyl-N-(6-oxo-5-azaspiro[2.4]heptan-5-yl)-N-((5-(trifluoromethyl)pyridin-2-yl)methyl)-1H-pyrazolo[4,3-c]quinoline-8-carboxamide] | < 1 nM | 146 | < 100 nM |
| CN(CC1CCC1)N(Cc1ccc(C(F)(F)F)cn1)C(=O)c1ccc2nc(N)c3cnn(C)c3c2c1 [Example 172, 4-amino-N′-(cyclobutylmethyl)-N′,1-dimethyl-N-[[5-(trifluoromethyl)-2-pyridyl]methyl]pyrazolo[4,3-c]quinoline-8-carbohydrazide] | 1 to 5 nM | 153 | < 100 nM |
| CN(C(=O)c1ccnn1C)N(Cc1ccc(C(F)(F)F)cn1)C(=O)c1ccc2nc(N)c3cnn(C)c3c2c1 [Example 175, 4-amino-N′,1-dimethyl-N′-(1-methyl-1H-pyrazole-5-carbonyl)-N-((5-(trifluoromethyl)pyridin-2-yl)methyl)-1H-pyrazolo[4,3-c]quinoline-8-carbohydrazide] | 1 to 5 nM | 19 | < 100 nM |
| CC(=O)N(C)N(Cc1ccc(C#CC(C)(C)S(C)(=O)=O)cc1F)C(=O)c1ccc2nc(N)c3cnn(C)c3c2c1 [Example 176, N′-acetyl-4-amino-N-(2-fluoro-4-(3-methyl-3-(methylsulfonyl)but-1-yn-1-yl)benzyl)-N′,1-dimethyl-1H-pyrazolo[4,3-c]quinoline-8-carbohydrazide] | 1 to 5 nM | 35 | 100 to 1000 nM |
| CC(=O)N(C)N(Cc1ccc(C#CC2(C(F)F)CC2)cc1F)C(=O)c1ccc2nc(N)c3cnn(C)c3c2c1 [Example 177, N′-acetyl-4-amino-N-(4-((1-(difluoromethyl)cyclopropyl)ethynyl)-2-fluorobenzyl)-N′,1-dimethyl-1H-pyrazolo[4,3-c]quinoline-8-carbohydrazide] | 1 to 5 nM | 36 | < 100 nM |
| Cn1ncc2c(N)nc3ccc(C(=O)N(Cc4ccc(C(F)(F)F)cn4)N4CC(C(F)(F)F)OC4=O)cc3c21 (stereo not drawn) [Example 178, 4-amino-1-methyl-N-(2-oxo-5-(trifluoromethyl)oxazolidin-3-yl)-N-((5-(trifluoromethyl)pyridin-2-yl)methyl)-1H-pyrazolo[4,3-c]quinoline-8-carboxamide] | > 5 nM | 138 | 100 to 1000 nM |

Second part, led by results:

| EC50 [2] | EC50 selectivity (SDMA assay) [2] | Structure (SMILES) | CC50 [1] |
| --- | --- | --- | --- |
| 1 to 5 nM | 145 | CN(C(=O)c1ncccn1)N(Cc1ccc(C(F)(F)F)cn1)C(=O)c1ccc2nc(N)c3cnn(C)c3c2c1 [Example 163, 4-amino-N′,1-dimethyl-N′-(pyrimidine-2-carbonyl)-N-((5-(trifluoromethyl)pyridin-2-yl)methyl)-1H-pyrazolo[4,3-c]quinoline-8-carbohydrazide] | < 100 nM |
| < 1 nM | 11 | CN(C(=O)c1ncco1)N(Cc1ccc(C(F)(F)F)cc1F)C(=O)c1ccc2nc(N)c3cnn(C)c3c2c1 [Example 165, N′-(4-amino-1-methyl-1H-pyrazolo[4,3-c]quinoline-8-carbonyl)-N′-(2-fluoro-4-(trifluoromethyl)benzyl)-N-methyloxazole-2-carbohydrazide] | < 100 nM |
| < 1 nM | 21 | CN(C(=O)c1cocn1)N(Cc1ccc(C(F)(F)F)cc1F)C(=O)c1ccc2nc(N)c3cnn(C)c3c2c1 [Example 166, N′-(4-amino-1-methyl-1H-pyrazolo[4,3-c]quinoline-8-carbonyl)-N′-(2-fluoro-4-(trifluoromethyl)benzyl)-N-methyloxazole-4-carbohydrazide] | < 100 nM |
| < 1 nM | 10 | CC(=O)N(C)N(Cc1ccc(C(F)(F)F)cn1)C(=O)c1cc2c3c(c(N)nc2cc1F)[C@@H](C)OC3 [Example 167, (3R)—N′-acetyl-4-amino-7-fluoro-N′,3-dimethyl-N-[[5-(trifluoromethyl)-2-pyridyl]methyl]-1,3-dihydrofuro[3,4-c]quinoline-8-carbohydrazide] | < 100 nM |
| < 1 nM | 97 | CC(=O)N(C)N(Cc1ccc(C(F)(F)F)cn1)C(=O)c1ccc2nc(N)c3c(c2c1)COC3 [Example 168, N′-acetyl-4-amino-N′-methyl-N-[[5-(trifluoromethyl)-2-pyridyl]methyl]-1,3-dihydrofuro[3,4-c]quinoline-8-carbohydrazide] | < 100 nM |
| < 1 nM | 571 | Cn1ncc2c(N)nc3ccc(C(=O)N(Cc4ccc(C(F)(F)F)cn4)N4CCC(F)(F)C4=O)cc3c21 [Example 171, 4-amino-N-(3,3-difluoro-2-oxo-pyrrolidin-1-yl)-1-methyl-N-[[5-(trifluoromethyl)-2-pyridyl]methyl]pyrazolo[4,3-c]quinoline-8-carboxamide] | < 100 nM |
| < 1 nM | 117 | CN(CC1CC1)N(Cc1ccc(C(F)(F)F)cn1)C(=O)c1ccc2nc(N)c3cnn(C)c3c2c1 [Example 173, 4-amino-N′-(cyclopropylmethyl)-N′,1-dimethyl-N-[[5-(trifluoromethyl)-2-pyridyl]methyl]pyrazolo[4,3-c]quinoline-8-carbohydrazide] | < 100 nM |
| < 1 nM | 24 | CN(CC1CC1)N(Cc1ccc(C(F)(F)F)cn1)C(=O)c1cc2c(cc1F)nc(N)c1cnn(C)c12 [Example 174, 4-amino-N′-(cyclopropylmethyl)-7-fluoro-N′,1-dimethyl-N-[[5-(trifluoromethyl)-2-pyridyl]methyl]pyrazolo[4,3-c]quinoline-8-carbohydrazide] | < 100 nM |
| < 1 nM | 318 | COCCN(C)N(Cc1ccc(C(F)(F)F)cn1)C(=O)c1ccc2nc(N)c3cnn(C)c3c2c1 [Example 179, 4-amino-N′-(2-methoxyethyl)-N′,1-dimethyl-N-((5-(trifluoromethyl)pyridin-2-yl)methyl)-1H-pyrazolo[4,3-c]quinoline-8-carbohydrazide] | < 100 nM |
| < 1 nM | 50 | COCCN(C)N(Cc1ccc(C(F)(F)F)cn1)C(=O)c1cc2c(cc1F)nc(N)c1cnn(C)c12 [Example 180, 4-amino-7-fluoro-N′-(2-methoxyethyl)-N′,1-dimethyl-N-((5-(trifluoromethyl)pyridin-2-yl)methyl)-1H-pyrazolo[4,3-c]quinoline-8-carbohydrazide] | < 100 nM |
